From publication PMC7248311, “Bisphenol A Diglycidyl Ether (BADGE) and Bisphenol Analogs, but Not Bisphenol A (BPA), Activate the CatSper Ca^2+ Channel in Human Sperm” (Frontiers in Endocrinology, 2020)
Entries after “also recorded” stand apart in the source; their conditions may differ. Like-named read-outs stand apart in the source and are kept apart here.

Assays:
[1] = system: G protein-coupled estrogen receptor (GPER); design: method as in PMID 28858478; conditions: low doses ref 46; cited from earlier work
human sperm cells [2] = assay: Ca^2+ fluorimetric assay: Ca^2+ signals ([Ca^2+]i) induced in human sperm cells; assay type: cell-based; conditions: for Induction of Ca^2+ signals in human sperm cells (in words): 10 μM; for activation at 10 µM / EC50: Homo sapiens, Sperm; for activation at 10 µM: read-out: Mean relative peak Ca^2+ signal at 10 μM (in %) (n = 3); for EC50: read-out: EC50, μM Mean; for EC05, μM Mean: lowest effective dose from dose response of induced Ca^2+ signals
Procedure: (§1) Changes in the free intracellular Ca^2+ concentration [Ca^2+]i in human sperm cells were measured in 384 multi-well-plates in a fluorescence plate reader (Fluostar Omega, BMG Labtech, Germany) at 30°C as described in Rehfeld et al. ([41]). Briefly, sperm cells were incubated with the fluorescent Ca^2+ indicator Fluo-4, AM (10 μM) for 45 min at 37°C. […] Fluorescence was recorded before and after addition of 25 μL bisphenol solutions, negative control (buffer with vehicle), positive control (progesterone, 5 μM final concentration) manually with an electronic multichannel pipette to duplicate wells. […] For the inhibition studies mean basal fluorescence (F0) was defined as the last 5 cycles before addition of 100 nM progesterone.
The bisphenols were screened at a concentration of 10 μM, along a positive control (progesterone, 5 μM), and negative control (HTF^+ with vehicle). Changes in [Ca^2+]i were recorded for 4 min after addition of the chemicals and controls. We calculated the relative peak Ca^2+ signal in % induced by the bisphenols, by dividing the peak Ca^2+ signal with that of the paired positive control, in order to compare data from the different experiments.

[3] = system: capacitated human sperm cells; assay: Image cytometry-based acrosome reaction assay; assay type: cell-based; conditions: 10 μM, 30 min, vs negative control
Procedure: The amount of live acrosome reacted sperm cells was measured using an image cytometry-based acrosome reaction assay, as described in Rehfeld et al. ([41]). Briefly, capacitated sperm cells (10 × 10^6/ml) were divided into equal aliquots and mixed thoroughly with a staining solution containing 5 μg/mL FITC-PSA, 0.5 μg/mL PI, and 10 μg/mL Hoechst in HTF^+. Bisphenols (10 μM) were added to the aliquots of stained capacitated sperm cells together with the positive controls, ionomycin (10 μM), and progesterone (10 μM). As a negative control, HTF^+ with 0.2% DMSO was used. After addition of bisphenols and controls the samples were mixed well and placed on a gentle mixing heating plate at 37°C. After 30 min of incubation, the aliquots were mixed thoroughly by pipetting and a 50 μL sample was drawn and added to a 100 μL aliquot of an immobilizing solution containing 0.6 M NaHCO3 and 0.37% (v/v) formaldehyde in distilled water. This solution was mixed well by pipetting, immediately loaded in an A2 slide (ChemoMetec A/S, Allerød, Denmark) and assessed in a NC-3000 image cytometer (ChemoMetec A/S, Allerød, Denmark). The following protocol was applied: 2-color flexicyte with Hoechst defining the sperm cells to be analyzed; Ex475-Em560/35: exposure time 3,000 ms, Ex530-Em675/75: exposure time 500 ms, with a minimum of 5,000 analyzed cells (positive for Hoechst). […]

[4] = system: progesterone-induced Ca^2+ signals in human sperm cells; assay: Inhibition of Ca^2+ signals induced by 100 nM progesterone after 5 min pre-incubation with bisphenols; assay type: cell-based; conditions: for Dose-dependent inhibition of progesterone-induced Ca^2+ signals (in words): 100 nM progesterone, 5 min pre-incubation; for IC50: Homo sapiens, Sperm, read-out: IC50, μM Mean
Procedure: as §1
We compared the amplitude of the Ca^2+ signals induced by 100 nM of progesterone in human sperm cells after 5 min of pre-incubation with serially diluted doses of the bisphenols or a negative buffer control.

human sperm cells [5] = assay: Sperm penetration into a viscous medium (modified Kremer's test, methylcellulose); assay type: cell-based; conditions: 10 μM, 60 min, counted at 2 cm, vs negative control
Procedure: Assessment of sperm penetration was done using sperm penetration tests with 4,000 cP methylcellulose (1% w/v) as an artificial viscous medium as described in Alasmari et al. ([43]). The viscous methylcellulose (1% w/v) medium was prepared in HTF^+ by adding 10 mg methylcellulose per mL HTF^+ and mixing it by rotation overnight at RT. The viscous methylcellulose (1% w/v) medium was introduced into glass capillary tubes [borosilicate microslides (VitroTubes) 0.20 mm × 2.0 mm × 10 cm (VitroCom, USA)] by capillary forces, by placing the glass tubes vertically in a 1.5 mL microfuge tube with 750 μL methylcellulose (1% w/v) for 15min. Care was taken to prevent air bubbles from entering the glass tubes. The end of the glass tube that was placed in the microfuge tube was sealed with wax (Hounisens laboratorieudstyr A/S, Denmark). […] The number of sperm cells were counted at 2 cm distance from the opening of the tube, with two fields in each of four planes counted. Throughout the study, all samples were counted by the same observer. Only experiments with a positive increment in cell density at 2 cm for the positive control compared to the negative control and with more than 40 sperm cells counted at 2 cm for the positive control were used for the analysis.

[6] = system: voltage-activated Ca^2+ channels; conditions: cited from earlier work
human sperm [7] = system: human sperm; design: method as in PMID 27686954; conditions: cited from earlier work
human sperm cells [8] = conditions: cited from earlier work
human sperm [9] = system: human sperm; design: method as in doi:10.20883/jms.2016.5; conditions: 0.1 nM−1 μM ref 40; cited from earlier work
CatSper = assay: Induced Ca^2+ signals in absence or presence of CatSper inhibitor RU1968; conditions: RU1968 30 μM; bisphenols 5–50 μM, progesterone 5 μM; n = 3
[10] = bisphenol 10 μM, peak Ca^2+ signal divided by that of progesterone 5 μM in the same experiment
[11] = Ca^2+ signals induced by 100 nM progesterone after pre-incubation, n = 3–5
[12] = dose response of induced Ca^2+ signals, n = 3–7

| Structure (SMILES) | Induction of Ca^2+ signals in SKBR3 cells via GPER [1] | Induction of Ca^2+ signals in human sperm cells (in words) (human sperm cells [2]) | activation at 10 µM (human sperm cells [2]; [10]) | Dose-dependent inhibition of progesterone-induced Ca^2+ signals (in words) [4] | EC50 (human sperm cells [2]; [12]) | EC05, μM Mean (human sperm cells [2]; n = 3–7) | further results |
| --- | --- | --- | --- | --- | --- | --- | --- |
| Oc1ccc(Cc2ccc(O)cc2)cc1 [BPF, Bisphenol F] | induce Ca^2+ signals | induced no Ca^2+ signals | 5.09% |  |  |  |  |
| CC(C)c1cc(C(C)(C)c2ccc(O)c(C(C)C)c2)ccc1O [BPG, Bisphenol G] |  | can induce Ca^2+ signals | 109% | dose-dependently inhibit | 1.27 µM | 0.18 µM | Live acrosome reacted sperm cells [3]: significant increase; IC50 [4, 11]: 1.86 µM; Numbers of human sperm cells penetrating into a viscous medium (human sperm cells [5]): significant increase |
| CC(C)(c1ccc(O)cc1)c1ccc(O)cc1 [BPA, Bisphenol A] | induce Ca^2+ signals | induced no Ca^2+ signals; also recorded: do not induce Ca^2+ signals | 1.44% |  |  |  | Activation of other voltage-activated Ca^2+ channels [6]: activate; Inhibition of other voltage-activated Ca^2+ channels [6]: inhibit; Dose inducing mitochondrial dysfunction in human sperm (human sperm [7]): ≥ 300 µM; Effect on [Ca^2+]i in single human sperm cells (human sperm cells [8]; 1 μM ref 40): rapid, transient increase; Effect on [Ca^2+]i in human sperm cells (human sperm cells [8]; 0.1, 1, and 10 μM ref 34): did not affect; Effect on human sperm motility parameters (human sperm [9]): could affect human sperm motility parameters |
| CC(c1ccc(O)cc1)c1ccc(O)cc1 [BPE, Bisphenol E] |  | induced no Ca^2+ signals |  |  |  |  | activation at 10 µM (human sperm cells [2]): 5.37% |
| Cc1cc(C(C)(C)c2ccc(O)c(C)c2)ccc1O [BPC, Bisphenol C] |  | can induce Ca^2+ signals | 21.7% | dose-dependently inhibit | 10.3 µM | 0.70 µM | IC50 [4, 11]: 45.2 µM |
| CC(=O)[C@H]1CC[C@H]2[C@@H]3CCC4=CC(=O)CC[C@]4(C)[C@H]3CC[C@]12C [progesterone] |  |  |  |  |  |  | Inhibition of the induced Ca^2+ signal in the presence of RU1968 (CatSper): highly inhibited by RU1968 |
| Oc1ccc(C(c2ccc(O)cc2)(C(F)(F)F)C(F)(F)F)cc1 [BPAF, Bisphenol AF] | induce Ca^2+ signals | can induce Ca^2+ signals |  | dose-dependently inhibit |  | 0.36 µM | Live acrosome reacted sperm cells [3]: significant increase; IC50 [4]: 12.3 µM; Numbers of human sperm cells penetrating into a viscous medium (human sperm cells [5]): significant increase; EC50 (human sperm cells [2]): 2.4 µM; activation at 10 µM (human sperm cells [2]): 58% |
| Oc1ccc(C(c2ccccc2)(c2ccccc2)c2ccc(O)cc2)cc1 [BPBP, Bisphenol BP] |  | can induce Ca^2+ signals | 9.09% | all bisphenols, except BPBP, were able to dose dependently inhibit | 0.79 µM | 0.38 µM |  |
| CC(C)(c1ccc(OCC2CO2)cc1)c1ccc(OCC2CO2)cc1 (stereo not shown) [BADGE, Bisphenol A diglycidyl ether] |  | can induce Ca^2+ signals |  | dose-dependently inhibit |  | 1.82 µM | EC50 (human sperm cells [2]): 8.18 µM; activation at 10 µM (human sperm cells [2]): 14.8% |
| CCC(C)(c1ccc(O)cc1)c1ccc(O)cc1 [BPB, Bisphenol B] | induce Ca^2+ signals | can induce Ca^2+ signals | 11.8% | dose-dependently inhibit | 14.9 µM | 2.37 µM | IC50 [4, 11]: 39.9 µM |
| O=S(=O)(c1ccc(O)cc1)c1ccc(O)cc1 [BPS, Bisphenol S] | induce Ca^2+ signals | induced no Ca^2+ signals | 4.41% |  |  |  |  |
